Numbered stars: 1 amine (or outer) side, 2 acyl side, 3 side chain; on linkers, the order of the positions; unused ones are H or OH. Peptide text beside a SMILES is read from it. * marks the point of attachment. X1 = Brc1ccc2c(c1)-c1cc(N*)ccc1C2; Suc = O=C(CCC(=O)[*:2])[*:1]
Tests used:
Myzus persicae [1] = assay: Topical application by spraying, air brush; format: in vivo; details: 750 μl, 1×10^−5M of each peptide in Tween 24 0.1%, counted 48 hours post spray
Protocol: (§1) Aphids were exposed to test peptides in the absence of additional external stress conditions.
(§2) Brassica rapa (Chinese cabbage; Wong Bok) were infested with 30 adult Myzus persicae aphids per plant. Aphids were left at least 2 hours to settle and begin feeding from the host plant.
Spraying took place inside an externally vented fume cupboard. […] To ensure spray tracking, all sprayed solutions had amaranth dye added, allowing the full surface of the plant to be evenly coated with the aerosolised compound.
The plants to be sprayed were placed inside a plastic disposal bag, inside the fume cupboard. This was used to control the area exposed to the aerosolised liquid, to avoid extensive spraying and cleaning inside the fume cupboard. The bag was further lined with absorbent paper towel to again help contain and control spray.
Each experiment had three controls:
i) no vehicle or peptide air spray only, negative control to assess effect of spraying on aphid ability to remain attached to the plant; ii) vehicle spray only (Tween 24 0.1%); and iii) Imidacloprid positive control (28.3 μM).
Imidacloprid was always applied last to prevent any possibility of stray pesticide being left inside the disposal bag and contaminating a test peptide applied plant.
Spray volumes for all solutions for this experiment 750 μl.
A clean air brush (ABEST AC06k30) was loaded with 750 μl of peptide solution diluted in […] 0.1% vehicle. For this experiment there were three test conditions: 1895 alone (1×10^−5M); 2129 alone (1×10^−5M); and a simultaneous co-application of 1895+2129 together (1×10^−5M of each peptide). During application, the air brush was held within the plastic bag and the compressor turned on. The air brush was then gently sprayed back and forth across the plant. […]
Post peptide application, each condition was placed into its own individual Bugdorm (Watkins and Doncaster, 44545), to prevent repulsed or displaced aphids moving from one condition to another. Numbers of alive and dead aphids on the plant were counted 48 hours post spray, and the presence of any fresh nymphs noted. […]

Myzus persicae [2] = assay: Topical application by spraying, Potter Spray Tower; format: in vivo; details: 3000 μl, 1×10^−5M of each peptide in ATPlus 0.1%, counted 48 hours post spray
Protocol: as §1, §2
Spraying took place inside a designated spray room. To ensure spray tracking, all sprayed solutions had amaranth dye added.
Potter Spray Tower (Burkard Manufacturing) was ‘primed’ by spraying 1000 μl of liquid coating the inside of the tower. Two controls were used:
i) vehicle spray only (Croda ATPlus UEP 100 LQ-(CQ) 0.1% v/v); and ii) Imidacloprid positive control (28.3 μM).
Imidacloprid was always applied last and via a second, separate, Potter Tower, to prevent any possibility of stray pesticide being left inside the tower and contaminating a test peptide-applied plant.
Spray volumes for all solutions were 3000 μl. The 6.9 mm spray head was loaded with 3000 μl of a 1×10^−5M peptide solution diluted in ATPlus 0.1%. After spraying was completed the plant was allowed to rest on the spray platform for 30 seconds to allow settling of the sprayed chemical.
For this experiment there were three test conditions: 1895 alone (1×10^−5M); 2129 alone (1×10^−5M); and a simultaneous co-application of 1895+2129 together (1×10^−5M of each peptide).
Post peptide application, each condition was placed into its own individual Bugdorm (Watkins and Doncaster, 44545), to prevent repulsed or displaced aphids moving from one condition to another. Numbers of alive and dead aphids on the plant were counted 48 hours post spray, and the presence of any fresh nymphs noted. Plants were watered prior to spraying but not afterwards to eliminate the possibility of drowning any aphids present or washing off the sprayed liquid.
Post spraying, the spray head was filled with over 3000 μl of 70% ethanol and sprayed until empty. The spray head was carefully removed and rinsed with 70% ethanol as some amaranth dye was observed on the spray head. […]

Compound	% Lethality (Myzus persicae [1]) [%]	% Lethality (Myzus persicae [2]) [%]
CC[C@H](C)[C@H](NC(=O)[C@H](CCCNC(=N)N)NC(=O)[C@@H]1CCCN1C(=O)[C@@H](NC(=O)[C@H](C)NC(=O)CCC(=O)Nc1ccc2c(c1)-c1cc(Br)ccc1C2)[C@@H](C)O)C(N)=O [compound 2129, 2Abf-Suc-ATPRI-NH2] ({X1-Suc}-ATPRI-NH2)	30	32
2Abf-Suc-FGPRL-NH2 [compound 1895]	27	34
